Converted amounts (≈) assume the structure as drawn. Read-outs that look alike come from different tables or passages of the source.
How the values were obtained:
[1] = test system: Moloney Sarcoma Virus (MSV); experiment: Formation of foci by Moloney Sarcoma Virus (MSV) in vitro (antiviral action); format: cell-based; settings: Fibroblast, 72 h, read-out: Antiviral action ID50
Protocol: (§1) The test compound was evaluated on mouse embryo fibroblast (MEF) cultures infected with MSV and on similar uninfected cultures. After a treatment of three days the inhibiting doses (ID50) were evaluated on cell proliferation in uninfected cultures (cytotoxic action) and on MSV foci formation in infected cultures (antiviral action).
^b inhibition of MSV foci formation

Hela cells = experiment: Cloning efficiency of Hela cells in vitro (colony inhibition); format: cell-based; settings: Homo sapiens
Protocol: After treatment for 2, 8 and 24 hours, Hela cells were seeded (200 cells per plate) and the number of colonies determined 8 days later. The inhibiting dose (ID50) represents the does which produces a 50% inhibition of colonies.
^a cloning efficiency of Hela cells

[2] = Proliferation of uninfected mouse embryo fibroblast (MEF) cultures (cytotoxic action); format: cell-based; settings: mouse, mouse embryo fibroblasts; uninfected MEF, three days treatment; Table 2; read-out: Cytotoxic action ID50
Protocol: as §1
^c inhibition of mouse embryo fibroblasts proliferation

L 1210 leukemia = L 1210 leukemia bearing BDF mice, single i.p. treatment on first day; format: in vivo, mouse (BDF); settings: for T/C %: single i.p. day 1
Description: Inbread BDF mice were intraperitoneally inoculated with 1×10^5 leukemia cells/mouse and then treated with 3'-4'-epi-6'-hydroxydaunomycin:Single treatment i.p. on the first day.

## COc1cccc2c1C(=O)c1c(O)c3c(c(O)c1C2=O)C[C@@](O)(C(C)=O)C[C@@H]3O[C@H]1C[C@H](N)[C@H](O)[C@H](C)O1 [Daunomycin]
[1]
  IC50: 0.003 µg/mL (≈ 0.00569 µM)
Hela cells; 2 h, read-out: ID50 (action on Hela cells), 2 hours treatment, Table 1
  IC50: 17 µg/mL (≈ 32.2 µM)
Hela cells; 8 h, read-out: ID50 (action on Hela cells), 8 hours treatment, Table 1
  IC50: 8.5 µg/mL (≈ 16.1 µM)
Hela cells; 24 h, read-out: ID50 (action on Hela cells), 24 hours treatment, Table 1
  IC50: 6.8 µg/mL (≈ 12.9 µM)
[2]
  CC50 at 72 h: 0.016 µg/mL (≈ 0.0303 µM)

## COc1cccc2c1C(=O)c1c(O)c3c(c(O)c1C2=O)C[C@@](O)(C(C)=O)C[C@@H]3O[C@H]1C[C@@H](N)[C@@H](O)[C@H](CO)O1 [3'-4'-epi-6'-hydroxydaunomycin, 3',4'-epi-6'-hydroxy-daunomycin]
L 1210 leukemia; 7.5 ng/Kg (so in the source)
  T/C %: 150%
L 1210 leukemia; 11.5 ng/Kg (so in the source)
  T/C %: 150%
L 1210 leukemia; 17.25 ng/Kg (so in the source)
  T/C %: 150%
L 1210 leukemia; Table 4
  in vivo activity: significant in vivo activity
